Source: patent US20090175799A1, “COLORED OR COLORABLE TOPICAL COMPOSITION FOAM” (priority 2006, published 2009)

Text: In one or more embodiments, the foamable composition includes a potent solvent, in addition to or in place of one of the hydrophobic solvents, polar solvents or emollients of the composition. A potent solvent is a solvent other than mineral oil that solubilizes a specific active agent substantially better than a hydrocarbon solvent such as mineral oil or petrolatum.

| SMILES | solubility in glycofurol | solubility in mineral oil [%] | solubility in dimethyl isosorbide | solubility in propylene glycol | solubility in polyethylene glycol 400 (PEG 400) |
| --- | --- | --- | --- | --- | --- |
| CCCCC(=O)O[C@]1(C(=O)CO)[C@@H](C)C[C@H]2[C@@H]3CCC4=CC(=O)C=C[C@]4(C)[C@@]3(F)[C@@H](O)C[C@@]21C [Betamethasone valerate] | more than 1% | < 0.01 | – | – | – |
| CCCC(=O)O[C@]1(C(=O)CO)CC[C@H]2[C@@H]3CCC4=CC(=O)CC[C@]4(C)[C@H]3[C@@H](O)C[C@@]21C [Hydrocortisone butyrate] | more than 1% | < 0.01 | – | – | – |
| CC(=O)N1CCN(c2ccc(OCC3COC(Cn4ccnc4)(c4ccc(Cl)cc4Cl)O3)cc2)CC1 (centres unmarked) [Ketoconazole] | more than 1% | < 0.01 | more than 1% | more than 1% | – |
| Cc1cnc(NC(=O)C2=C(O)c3ccccc3S(=O)(=O)N2C)s1 [Meloxicam] | – | < 0.001 | – | – | – |
| Cc1ncc([N+](=O)[O-])n1CCO [Metronidazole] | – | < 0.01 | more than 1% | – | – |
| C/C(=C\C(=O)OCCCCCCCCC(=O)O)C[C@@H]1OC[C@H](C[C@@H]2O[C@H]2[C@@H](C)[C@H](C)O)[C@@H](O)[C@H]1O [Mupirocin] | more than 1% | < 0.01 | more than 1% | more than 1% | more than 1% |
| CC(=O)[C@H]1CC[C@H]2[C@@H]3CCC4=CC(=O)CC[C@]4(C)[C@H]3CC[C@]12C [Progesterone] | – | < 0.001 | – | – | – |
